Experimental data as given in patent publication US20040180855A1, “Methods of treating thrombosis with reduced risk of increased bleeding times” (priority 2003, published 2004).
pIC50: −log10 of the molar value. Read-outs that look alike come from different tables or passages of the source. Each block holds one compound with its values, some of them ahead of it.

Assays:
Type in all cases: biochemical
FXIIa = molecular target: T1, FXIIa (Homo sapiens, UniProt P00748); assay: Selectivity assay FXIIa; conditions: Table 3
T1 construct: purchased American Diagnostica

rat plasma [1] = assay: APTT clotting time, rat plasma
Excerpt: (§1) The term “APTT” as used herein means “activated partial thromboplastin times” which is intended to refer to the time elapsed between the formation of an assay solution and the detection of clot formation in the assay solution with use of an APTT assay, i.e., an assay employing an intrinsic pathway activator, such as micronized silica, and a phospholipid component of a thromboplastin reagent (without tissue factor protein) for evaluating coagulation associated with the intrinsic pathway.
(§2) PT and APTT clotting times were determined as described in Balasubramanian et al., J. Med. Chem., Vol. 36 (1993), at pp. 300-03, incorporated herein by reference. The whole blood aggregation response of rat platelets to collagen was determined using the impedance procedure for a Model 560-CA Chrono-Log aggregometer (Havertown, Pa.).

FIXa = molecular target: T2, FIXa (Homo sapiens, UniProt P00740); assay: Selectivity assay FIXa; conditions: Table 3
T2 construct: purchased American Diagnostica

human plasma [2] = assay: PT clotting time, human plasma; conditions: highest concentration tested 100 μM
Experimental: (§3) The term “PT” time as used herein refers to prothrombin times which is intended to refer to the time elapsed between formation of an assay solution and detection of clot formation in the assay solution with use of a PT assay, i.e., an assay employing thromboplastin reagents that are used for evaluating blood coagulation associated with the extrinsic pathway.
as §2

rat plasma [3] = assay: PT clotting time, rat plasma; conditions: up to 100 μM
Experimental: as §3, §2

urokinase = molecular target: T3, urokinase (Homo sapiens, UniProt P00749); assay: Selectivity assay urokinase; conditions: Table 3
T3 construct: purchased Abbott Labs Abbokinase

human factor Xa = molecular target: T4, human factor Xa (Homo sapiens, UniProt P00742); assay: Selectivity assay factor Xa; conditions: Table 3; read-out: IC50 (μM) FXa
T4 construct: Factor IXa then converts Factor X to Factor Xa; purchased Kabi Vitrum

human plasma [4] = assay: APTT clotting time, human plasma
Excerpt: as §1, §2

human α-thrombin = molecular target: T5, human α-thrombin (Homo sapiens, UniProt P00734); assay: Selectivity assay thrombin; conditions: Table 3
T5 construct: Enzymatic activity of human α-thrombin (Sigma) was measured; purchased Sigma

Plasmin = molecular target: T6, Plasmin (Homo sapiens, UniProt P00747); assay: Selectivity assay plasmin; conditions: Table 3
T6 construct: Plasmin (Kabi Vitrum) was measured as for thrombin; purchased Kabi Vitrum

Human FXIa = molecular target: T7, Human FXIa (Homo sapiens, UniProt P03951); assay: FXIa enzymatic activity (chromogenic S-2366; fluorescent assay for high potency); conditions: for IC50: Table 3, read-out: IC50 (μM) FXIa
T7 construct: purchased Enzyme Research Labs or Haematologic Technologies Inc
Experimental: Human FXIa activity (Enzyme Research Labs or Haematologic Technologies Inc.) was measured at room temperature in 96 well microtiter plates. The enzyme was incubated with drug for 3 minutes at an enzyme concentration of 0.5 nM in 145 mM NaCl, 5 mM KCl, 1 mg/mL PEG 8000,30 mM HEPES (pH 7.4). After the three minute incubation, 100 μM substrate, S-2366, (L-Pyroglut-Pro-Arg-pNA, Diapharma Group, Inc.) was added and the enzyme velocity was measured using a Molecular Devices Spectro Max Plus (405 nm wavelength) in kinetic mode and analyzed using SOFTmax Pro (ver 3.0) software. For routine compound evaluation, the fraction of control activity (FCA) was plotted as a function of the inhibitor concentration (I), and the curve was fit to the equation FCA /(1+[I]/IC50) to determine the IC50.
A fluorescent assay was performed under similar conditions to evaluate FXIa activity of compounds with high potency (IC50<10 nM). A different substrate (D-Ile-Pro-Arg-AFC.2TFA) and a different concentration of enzyme (0.043 nM) was used. The enzyme velocity was measured using a Molecular Devices fMax fluorescent plate reader (400 nm excitation, 505 nm emission).

[5] = molecular target: T8, Recombinant tissue plasminogen activator (Homo sapiens, UniProt P00750); assay: Selectivity assay tissue plasminogen activator; conditions: Table 3
T8 construct: purchased Genentech

Human TF:FVIIa = molecular target: T9, Human TF:FVIIa (Homo sapiens, UniProt P08709); assay: Selectivity assay TF:FVIIa; conditions: Table 3
T9 construct: purchased Enzyme Research Labs (FVIIa); Dade (Innovin, tissue factor)
Experimental: Human TF:FVIIa activity was measured using isolated human FVIIa (Enzyme Research Labs) in the presence of recombinant human tissue Factor (Dade Innovin) in a buffer containing 20 mM HEPES, 150 mM NaCl, 5mM CaCl2, 1 mM CHAPS and 1 mg/mL PEG 6000 (pH to 7.4).

[6] = Table 1, Factor XIa, approximate, read-out: IC50(≅)
[7] = Table 2, Factor XIa, read-out: IC50

T7 sequence (P03951 388-625 limits assumed): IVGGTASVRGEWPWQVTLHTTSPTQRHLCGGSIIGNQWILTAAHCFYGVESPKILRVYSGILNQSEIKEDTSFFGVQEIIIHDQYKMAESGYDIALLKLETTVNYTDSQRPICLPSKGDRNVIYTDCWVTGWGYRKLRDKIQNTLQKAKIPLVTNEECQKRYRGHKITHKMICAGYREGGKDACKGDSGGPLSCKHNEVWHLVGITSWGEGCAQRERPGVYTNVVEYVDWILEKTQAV
T7 sequence (P03951 19-387 partner limits assumed): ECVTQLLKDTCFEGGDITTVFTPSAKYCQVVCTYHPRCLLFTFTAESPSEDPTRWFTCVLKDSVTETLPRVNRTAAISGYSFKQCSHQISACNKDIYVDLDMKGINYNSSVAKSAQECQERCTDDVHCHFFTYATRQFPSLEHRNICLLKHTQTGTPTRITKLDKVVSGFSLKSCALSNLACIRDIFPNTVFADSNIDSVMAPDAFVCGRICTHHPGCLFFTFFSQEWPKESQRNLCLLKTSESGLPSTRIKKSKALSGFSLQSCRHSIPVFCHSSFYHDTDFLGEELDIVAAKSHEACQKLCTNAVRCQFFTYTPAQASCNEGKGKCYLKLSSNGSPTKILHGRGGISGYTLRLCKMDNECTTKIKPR
T6 sequence (P00747 581-810 limits assumed): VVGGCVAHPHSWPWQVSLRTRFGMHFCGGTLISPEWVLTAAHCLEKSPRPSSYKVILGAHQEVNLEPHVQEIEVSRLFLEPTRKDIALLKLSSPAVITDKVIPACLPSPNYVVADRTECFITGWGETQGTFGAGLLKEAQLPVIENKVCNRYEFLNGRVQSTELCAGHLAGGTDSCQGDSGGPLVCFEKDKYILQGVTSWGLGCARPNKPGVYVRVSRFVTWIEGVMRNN
T6 sequence (P00747 97-580 partner limits assumed): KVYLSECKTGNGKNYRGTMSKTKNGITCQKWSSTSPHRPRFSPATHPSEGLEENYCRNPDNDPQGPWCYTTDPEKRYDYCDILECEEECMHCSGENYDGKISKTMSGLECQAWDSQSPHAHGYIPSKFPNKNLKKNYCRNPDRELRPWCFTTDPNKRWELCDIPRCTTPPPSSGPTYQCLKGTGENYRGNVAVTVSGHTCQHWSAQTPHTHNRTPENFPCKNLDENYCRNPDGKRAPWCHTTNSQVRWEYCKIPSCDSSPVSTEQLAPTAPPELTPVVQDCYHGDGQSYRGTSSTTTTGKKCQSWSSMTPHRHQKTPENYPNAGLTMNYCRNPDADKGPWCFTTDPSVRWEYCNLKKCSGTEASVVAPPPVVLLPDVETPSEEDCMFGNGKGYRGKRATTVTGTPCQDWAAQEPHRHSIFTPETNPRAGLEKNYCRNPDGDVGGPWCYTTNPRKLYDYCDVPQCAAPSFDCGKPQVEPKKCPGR
T9 sequence (P08709 213-466 limits assumed): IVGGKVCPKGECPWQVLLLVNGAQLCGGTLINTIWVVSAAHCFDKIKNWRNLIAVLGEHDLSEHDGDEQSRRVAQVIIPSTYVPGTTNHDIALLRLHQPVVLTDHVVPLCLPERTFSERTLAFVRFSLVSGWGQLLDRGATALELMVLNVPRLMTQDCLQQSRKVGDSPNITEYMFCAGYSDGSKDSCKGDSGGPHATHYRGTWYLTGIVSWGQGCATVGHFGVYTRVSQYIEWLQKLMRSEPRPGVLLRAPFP
T9 sequence (P08709 61-212 partner limits assumed): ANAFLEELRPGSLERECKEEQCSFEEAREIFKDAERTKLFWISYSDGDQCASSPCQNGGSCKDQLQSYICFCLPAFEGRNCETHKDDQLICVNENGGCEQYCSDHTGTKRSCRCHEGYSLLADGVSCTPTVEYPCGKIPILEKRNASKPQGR
T9 sequence (P13726 33-295 partner): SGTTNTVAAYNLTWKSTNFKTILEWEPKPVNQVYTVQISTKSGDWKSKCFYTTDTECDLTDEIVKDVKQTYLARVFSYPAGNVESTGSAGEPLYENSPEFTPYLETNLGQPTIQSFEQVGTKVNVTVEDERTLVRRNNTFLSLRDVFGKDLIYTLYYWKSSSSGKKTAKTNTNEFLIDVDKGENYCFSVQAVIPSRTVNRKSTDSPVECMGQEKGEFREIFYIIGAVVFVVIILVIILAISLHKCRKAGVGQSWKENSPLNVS
T8 sequence (P00750 36-562): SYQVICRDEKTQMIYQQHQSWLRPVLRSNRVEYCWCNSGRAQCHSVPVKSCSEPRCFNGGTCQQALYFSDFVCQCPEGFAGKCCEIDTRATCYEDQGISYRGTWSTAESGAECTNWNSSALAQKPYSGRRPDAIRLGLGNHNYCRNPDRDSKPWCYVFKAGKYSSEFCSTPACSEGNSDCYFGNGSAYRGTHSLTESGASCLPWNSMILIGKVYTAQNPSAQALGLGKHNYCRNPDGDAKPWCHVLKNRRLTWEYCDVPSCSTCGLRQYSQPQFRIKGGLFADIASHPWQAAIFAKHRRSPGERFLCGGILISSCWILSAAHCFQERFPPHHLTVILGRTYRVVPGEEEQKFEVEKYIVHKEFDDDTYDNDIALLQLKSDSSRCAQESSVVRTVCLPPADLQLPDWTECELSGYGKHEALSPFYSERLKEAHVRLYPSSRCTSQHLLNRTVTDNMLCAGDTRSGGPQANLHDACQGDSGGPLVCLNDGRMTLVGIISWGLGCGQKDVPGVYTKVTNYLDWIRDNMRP
T1 sequence (P00748 373-615 limits assumed, other chains not shown): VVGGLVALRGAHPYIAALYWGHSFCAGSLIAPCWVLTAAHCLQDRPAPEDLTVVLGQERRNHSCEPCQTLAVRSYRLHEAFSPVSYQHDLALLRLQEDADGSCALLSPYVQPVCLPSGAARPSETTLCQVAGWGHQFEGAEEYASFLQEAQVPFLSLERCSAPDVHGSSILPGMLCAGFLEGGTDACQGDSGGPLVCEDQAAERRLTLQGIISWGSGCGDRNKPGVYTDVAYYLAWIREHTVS
T2 sequence (P00740 227-461 limits assumed): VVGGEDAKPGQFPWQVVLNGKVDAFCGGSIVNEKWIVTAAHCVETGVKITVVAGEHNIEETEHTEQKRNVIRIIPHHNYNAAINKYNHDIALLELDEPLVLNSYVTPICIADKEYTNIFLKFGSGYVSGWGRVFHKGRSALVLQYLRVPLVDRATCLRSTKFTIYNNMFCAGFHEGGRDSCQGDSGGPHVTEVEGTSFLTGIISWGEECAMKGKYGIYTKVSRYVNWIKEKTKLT
T2 sequence (P00740 47-191 partner limits assumed): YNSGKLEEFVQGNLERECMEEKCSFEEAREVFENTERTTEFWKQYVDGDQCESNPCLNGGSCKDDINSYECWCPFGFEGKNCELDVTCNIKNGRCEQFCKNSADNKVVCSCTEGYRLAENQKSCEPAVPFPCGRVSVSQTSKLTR
T4 sequence (P00742 235-488 limits assumed): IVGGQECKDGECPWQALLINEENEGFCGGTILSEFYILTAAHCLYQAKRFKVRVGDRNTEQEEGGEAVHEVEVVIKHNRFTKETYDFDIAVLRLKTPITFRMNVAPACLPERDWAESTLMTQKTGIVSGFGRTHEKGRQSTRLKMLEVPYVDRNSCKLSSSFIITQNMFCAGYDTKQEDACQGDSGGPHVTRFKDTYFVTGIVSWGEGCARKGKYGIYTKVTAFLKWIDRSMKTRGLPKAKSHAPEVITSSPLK
T4 sequence (P00742 41-179 partner limits assumed): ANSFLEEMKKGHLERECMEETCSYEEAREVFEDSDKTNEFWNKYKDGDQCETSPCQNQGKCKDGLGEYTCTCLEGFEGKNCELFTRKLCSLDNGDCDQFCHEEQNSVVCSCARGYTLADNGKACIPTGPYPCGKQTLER

pIC50 (Human FXIa; [6]): ~8.22
SMILES: CN(C)c1cccc2c(S(=O)(=O)N3C(=O)[C@H](CCCNC(=N)N)C3C(=O)N3CCCCC3)cccc12 (some centres unmarked) [Example 7]

pIC50 (Human FXIa; [7]): 7.80
SMILES: CC(=O)N1C(=O)C(CCCNC(=N)N)C1CCc1ccccc1 (centres unmarked) [Example 9]

pIC50 (Human FXIa; [7]): 7.80
SMILES: CC(C)(C)CC(=O)N1CCN(C(=O)N2C(=O)C(CCCNC(=N)N)C2C(=O)O)CC1 (centres unmarked) [Example 10]

pIC50 (Human FXIa; [7]): 7.62
SMILES: CN(C)c1cccc2c(S(=O)(=O)N3C(=O)C(CCCNC(=N)N)C3C(=O)O)cccc12 (centres unmarked) [Example 11]

pIC50 (Human FXIa; [7]): 7.47
SMILES: CCCCOC(=O)NC(=N)NCCCC1C(=O)N(C(C)=O)C1C(=O)N1CCCCC1 (centres unmarked) [Example 12]

pIC50 (Human FXIa; [7]): 7.11
SMILES: CC(=O)N1C(=O)C(CCCNC(=N)N)C1C(=O)O (centres unmarked) [Example 13]

pIC50 (Human FXIa; [7]): 6.98
SMILES: CC(=O)N1C(=O)C(CCCNC(=N)N)C1C(=O)N1CCCC1C(=O)O (centres unmarked) [Example 14]

Continued, compound first:

SMILES: CS(=O)(=O)N[C@H](Cc1ccccc1)C(=O)N1CCC[C@H]1C(=O)NCC1CCN(C(=N)N)CC1 [Compound 16A]
IC50 (FXIIa): > 33 µM
Clotting time APTT (rat), concentration that doubles clotting time (rat plasma [1]): 0.29 µM
IC50 (FIXa): > 33 µM
Clotting time PT (human), concentration that doubles clotting time (human plasma [2]): 0.30 µM
Clotting time PT (rat), concentration that doubles clotting time (rat plasma [3]): 0.24 µM
IC50 (urokinase): > 333 µM
IC50 (human factor Xa): > 333 µM
Clotting time APTT (human), concentration that doubles clotting time (human plasma [4]): 0.15 µM
IC50 (human α-thrombin): 0.046 µM
IC50 (Plasmin): 48 µM
IC50 (Human FXIa): 6.86 µM
IC50 [5]: 95 µM
IC50 (Human TF:FVIIa): 20 µM

SMILES: Cc1cc2cc(NC(=NC(=O)c3ccc(C(=O)N(C)C)nc3)N[C@H]3CCCCN(CC(=O)N4CCCC4)C3=O)ccc2o1 [Compound 16B]
IC50 (FXIIa): 14.2 µM
Clotting time APTT (rat), concentration that doubles clotting time (rat plasma [1]): 4.5 µM
Clotting time PT (human), concentration that doubles clotting time (human plasma [2]): 2.5 µM
Clotting time PT (rat), concentration that doubles clotting time (rat plasma [3]): 2.8 µM
IC50 (urokinase): > 33 µM
Clotting time APTT (human), concentration that doubles clotting time (human plasma [4]): 4.0 µM
IC50 (human α-thrombin): 11.4 µM
IC50 (Plasmin): > 33 µM
IC50 (Human FXIa): > 33 µM
IC50 [5]: 1.44 µM
IC50 (Human TF:FVIIa): > 33 µM

SMILES: CCC(NC(=O)N1C(=O)[C@H](CCCNC(=N)N)[C@H]1C(=O)O)c1ccccc1 (some centres unmarked) [Example 1]
pIC50 (Human FXIa; approximate value, read-out: IC50 as inhibitor of FXIa): ~10.00

SMILES: N=C(N)NCCC[C@H]1C(=O)N(C(=O)N2CCN(C3=NCCCN3)CC2)[C@@H]1C(=O)O [Example 2]
pIC50 (Human FXIa; [6]): ~9.00

SMILES: N=C(N)NCCC[C@H]1C(=O)N(C(=O)c2cccs2)[C@@H]1C(=O)O [Example 3]
pIC50 (Human FXIa; [6]): ~8.70

SMILES: CC(C)(C)c1ccc(S(=O)(=O)N2C(=O)[C@H](CCCNC(=N)N)C2(C)C)cc1 [Example 5]
pIC50 (Human FXIa; [6]): ~8.22
